System: 1-LN cells
Test: MMP-9 mRNA levels in 1-LN cells by RT-PCR
Format: cell-based, human
Conditions: for MMP-9 EXPRESSION mRNA: Yes/No; for Relative MMP-9 mRNA levels (ratio MMP-9 mRNA/GAPDH mRNA): glycoform 0.1 μM, 24 h, versus serum-free medium alone, in words
Procedure: RNA Isolation—To determine changes in MMP-9 mRNA induced by Pg, 1-LN cells were grown in 48 well culture plates (1.7×10^6 cells/well) and incubated with each individual Pg 2 glycoform for 24 h at 37° C. Cell monolayers were then rinsed twice in serum-free RPMI 1640 and total RNA extracted by a single-step method, using RNeach Mini kit (Qiagen, Chatsworth, Calif.), according to the manufacturer's instructions.
Measurement of MMP-9 mRNA Levels by Reverse Transcription-PCR (RT-PCR)—Total RNA was reverse transcribed with 1 μg of RNA in a 20 μl reaction mixture, using M-MLV reverse transcriptase (200 U) and oligo d(T) as primer for 1 h at 42° C. The resulting cDNA (5 μl) was used as a template and a […] segment of the MMP-9 cDNA was amplified, using a 24-mer upstream primer (5′-[…]-3′), identical to positions 2079-2102 and a 29-mer downstream primer (5′-[…]-3′) complimentary to positions 2270-2298 of the human MMP-9 mRNA [45]. A 600-bp segment of the glyceraldehyde phosphate dehydrogenase (GAPDH, constitutive internal control) cDNA was co-amplified, using a 24-mer upstream primer (5′-[…]), identical to positions 212-235 and a 24-mer downstream primer (5′-[…]-3′), complimentary to positions 786-809 of the human GAPDH mRNA [46]. Amplification was carried out in a Techne Thermal Cycler PHC-3 for 28 cycles (one cycle=94° C. for 45 s, 60° C. for 45 s, and 72° C. for 45 s). PCR products were analyzed on a 1.2% agarose-ethidium bromide gel. The gels were photographed and the intensity of the individual MMP-9 and GAPDH mRNA bands measured by laser densitometric scanning, using a Molecular Dynamics Personal Densitometer. Changes in MMP-9 mRNA levels were expressed as a relative ratio of MMP-9 mRNA/GAPDH mRNA band intensities.

| Substance | MMP-9 EXPRESSION mRNA | Relative MMP-9 mRNA levels (ratio MMP-9 mRNA/GAPDH mRNA) |
| --- | --- | --- |
| Pg 2γ: glycoform of human plasminogen type 2 purified from plasma; 2.95 mol sialic acid/mol Pg | No | did not show a significant change |
| Pg 2ε: glycoform of human plasminogen type 2 purified from plasma; 5.34 mol sialic acid/mol Pg | Yes | significant increase |
| Pg 2δ: glycoform of human plasminogen type 2 purified from plasma; 5.77 mol sialic acid/mol Pg | No | did not show a significant change |
| Pg 2α: glycoform of human plasminogen type 2 purified from plasma; 1.3 mol sialic acid/mol Pg | No | did not show a significant change |
| Pg 2β: glycoform of human plasminogen type 2 purified from plasma; 2.2 mol sialic acid/mol Pg | No | did not show a significant change |
